Assay results from patent US20090105349A1, “ANDROGEN MODULATORS” (WARNER-LAMBERT COMPANY LLC, priority 2004, published 2009).

Columns and labels:
[1] = test system: male C3H/HeN mice (telogen to anagen conversion); format: in vivo; details: mouse, in vivo
Excerpt: While this model is a significant improvement over the telogen conversion assay as a model for human baldness, it suffers from a number of practical disadvantages. The macaques are expensive, relatively rare, labor intensive to maintain, and require long wash out periods between testing. […] Thus, the model relates to a modification of the existing telogen conversion assay. Male C3H/HeN mice approximately 7 weeks old are utilized. These animals are also uniformly in telogen, like their female counterparts. However, once shaven, the androgens inherently present in these male mice inhibit the conversion of the hair follicles to the anagen phase. An anti-androgen will block this androgenic effect and the follicles will convert to anagen, like their female counterparts.
The compounds shown below in Table IV were submitted for further testing utilizing the modified telogen conversion assay, described above. The testing was carried out in the following manner.
Male C3H/HeN mice, 6 to 7 weeks old (Charles River Laboratories, Raleigh, N.C.) were used for the study. Fur was clipped from the dorsal region of the mice prior to initiation of the study. Only mice with pink skin, a visual indication of the telogen phase, were selected for inclusion in the study.
A second group of animals received only the vehicle to serve as a control. Treatments were applied twice daily for 4 weeks.
The hair growth response was quantified by recording, for each animal, the day on which signs of hair growth first appeared over the treated area. The first sign of anagen was the darkening of skin color as melanocytes in the follicles started to synthesize melanin in preparation for the production of pigmented hairs. […] The day on which anagen was initiated in 50% of the test animals for both the treatment group and the vehicle group is reported below in Table IV.

[2] = molecular target: T1, androgen receptor in MDA-MB453-MMTV clone 54-19 cells (Homo sapiens, UniProt P10275); experiment: AR antagonist cell assay (MMTV-luciferase reporter); format: cell-based; details: read-out: AR Cell IC50; MDA-MB453-MMTV clone 54-19, inhibition of DHT induced luciferase, 17 hr; mean of multiple tests
T1 sequence (P10275 1-920 Q868H): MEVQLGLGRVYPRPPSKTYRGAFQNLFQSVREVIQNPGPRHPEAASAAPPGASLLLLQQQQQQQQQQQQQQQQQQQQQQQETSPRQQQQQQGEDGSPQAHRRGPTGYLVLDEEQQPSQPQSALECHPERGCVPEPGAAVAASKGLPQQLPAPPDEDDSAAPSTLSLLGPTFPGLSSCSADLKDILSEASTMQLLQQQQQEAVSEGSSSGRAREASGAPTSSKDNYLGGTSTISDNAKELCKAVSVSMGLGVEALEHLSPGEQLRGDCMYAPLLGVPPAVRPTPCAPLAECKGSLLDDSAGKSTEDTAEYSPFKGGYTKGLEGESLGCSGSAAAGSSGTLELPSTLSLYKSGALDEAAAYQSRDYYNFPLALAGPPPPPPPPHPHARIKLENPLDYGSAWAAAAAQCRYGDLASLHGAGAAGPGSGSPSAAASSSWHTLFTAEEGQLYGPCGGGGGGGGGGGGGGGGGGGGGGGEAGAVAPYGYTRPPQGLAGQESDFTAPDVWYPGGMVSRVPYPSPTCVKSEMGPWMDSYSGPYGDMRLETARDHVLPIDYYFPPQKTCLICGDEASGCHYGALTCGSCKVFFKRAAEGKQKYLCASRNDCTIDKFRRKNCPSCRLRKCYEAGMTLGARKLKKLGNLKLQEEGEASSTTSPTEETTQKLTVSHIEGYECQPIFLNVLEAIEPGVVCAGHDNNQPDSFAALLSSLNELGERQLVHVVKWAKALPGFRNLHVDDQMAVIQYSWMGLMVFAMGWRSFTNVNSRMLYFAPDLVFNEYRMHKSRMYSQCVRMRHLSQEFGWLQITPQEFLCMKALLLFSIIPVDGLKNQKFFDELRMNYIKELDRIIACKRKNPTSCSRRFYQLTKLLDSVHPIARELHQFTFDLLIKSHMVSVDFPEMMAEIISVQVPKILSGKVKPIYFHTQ

What does the source list for `CSc1ccccc1Oc1ccc(C#N)cc1Cl` [Example 5, 3-Chloro-4-(2-methylsulfanyl-phenoxy)-benzonitrile]?
Anagen-Trx (day on which anagen was initiated in 50% of the test animals) [1]: >35 days; IC50 [2]: 0.048 µM
